Experimental data taken from the NIST ThermoML archive (doi:10.1016/j.tca.2015.09.008).
Several values for one entry are separate records, joined by “and”; a condition that tells them apart may be missing. Identical values can stand only once. ± gives the expanded uncertainty stated by the source.

Settings: Crystal, Calculated from knudsen effusion weight loss

[I][La]([I])[I] [lanthanum triiodide]
Settings | vapor or sublimation pressure
827 K | 4.7e-07 ± 3.5e-07 kPa
845 K | 1.1e-06 ± 6e-07 kPa
862 K | 2.5e-06 ± 1.2e-06 kPa
869 K | 3.5e-06 ± 1.5e-06 kPa
875 K | 4.7e-06 ± 3.5e-06 kPa
884 K | 7.1e-06 ± 3.9e-06 kPa
905 K | 1.7e-05 ± 7e-06 kPa
910 K | 2.2e-05 ± 7e-06 kPa and 8.9e-06 ± 6.2e-06 kPa
921 K | 1.6e-05 ± 1.7e-05 kPa and 3.4e-05 ± 1.7e-05 kPa
937 K | 6.5e-05 ± 2.8e-05 kPa and 4e-05 ± 2.7e-05 kPa
943 K | 8.1e-05 ± 3.4e-05 kPa and 5.4e-05 ± 3.3e-05 kPa
953 K | 0.00012 ± 6.2e-05 kPa and 9.1e-05 ± 6.3e-05 kPa
962 K | 0.00017 ± 6.7e-05 kPa and 0.00014 ± 6.6e-05 kPa
978 K | 0.00031 ± 9.3e-05 kPa and 0.00033 ± 0.00011 kPa
